Patent publication US20240300997A1, “PROTEIN FOLDING AGENT” (TOHOKU UNIVERSITY, priority 2021, published 2024)

Legend:
[1] = molecular target: T1, reduced and denatured β2m (β2-microglobulin) (Homo sapiens, UniProt P61769); assay: Disulfide bond introduction ability into reduced and denatured β2m (reversed-phase HPLC); format: biochemical; conditions: 1 mM thiol compound and 0.2 mM disulfide compound
T1 construct: made in house; host or cells: E. coli
Method: β2m was expressed as a recombinant by an E. coli expression system, and the collected cells were suspended in lysate A (50 mM Tris-HCl, pH 8.1; 300 mM NaCl), followed by ultrasonic disintegration. The fraction obtained after centrifugation was incubated in the presence of 8 M urea and 20 mM DTT at pH 8.0 and 50° C. for 3 hours, followed by purification by reversed-phase column chromatography (Hitachi) using a Cosmosil 5C18-AR-II column. • Reference Document 1: M. Okumura, H. Kadokura, S. Hashimoto, K. Yutani, S. Kanemura, T. Hikima, Y. Hidaka, L. Ito, K. Shiba, S. Masui, D. Imai, S. Imaoka, H. Yamaguchi, K. Inaba, Inhibition of the functional interplay between endoplasmic reticulum (ER) oxidoreduclin-1α (Ero1α) and protein-disulfide isomerase (PDI) by the endocrine disruptor bisphenol A. J Biol Chem. 2014 289(39): 27004-27018. • Reference Document 2: J. S. Weissman, P. S. Kim, Reexamination of the folding of BPTI: predominance of native intermediates. Science 1991 253 (5026): 1386-93. • Reference Document 3: M. M. Lyles, H. F. Gilbert Catalysis of the oxidative folding of ribonuclease A by protein disulfide isomerase: dependence of the rate on the composition of the redox buffer. Biochemistry. 1991 30 (3): 613-9.
A buffer having the following combinations of 1 mM of a thiol compound and 0.2 mM of a disulfide compound (50 mM Tris-HCl, pH 7.5; 300 mM NaCl) was incubated at 30° C. with 10 μM of the reduced and denatured β2m prepared in the above 8), followed by a folding reaction.
The reaction solution was dispensed over time, followed by adding an equal amount of 6 M guanidine hydrochloric acid and 1.5 M HCl, and the disulfide bond introduction reaction was quenched. In order to identify the molecular species in the reaction solution, the resultant was subjected to reversed-phase HPLC, and an oxidation type (N) and a reduction type (R) of β2m were analyzed (FIG. 4A to FIG. 4C and FIG. 5). […]
Measurement and analysis conditions of the reversed-phase HPLC are shown below. 5C18-AR2 column (4.6×150 mm; NACALAI TESQUE) was used as a column, and an absorbance at 229 nm was detected. […]

native type β2m = molecular target: T2, native type β2m (Homo sapiens, UniProt P61769); assay: β2m aggregation experiment by heating; format: biochemical; conditions: 1 mM thiol compound; for appearance of the solution after cooling (before centrifugation): 10 µM native type β2m, heated from 25° C. to 50° C., 10 minutes, cooled to 25° C., FIG. 8; for residual rate of the native type β2m in the supernatant liquid: after heating to 50° C. and centrifugation, absorbance at 280 nm, FIG. 9
T2 construct: made in house; host or cells: E. coli
Method: A buffer containing 10 µM of native type β2m (50 mM Tris-HCl, pH 7.5; 300 mM NaCl) was heated from 25° C. to 50° C., equilibrated for 10 minutes when the temperature reached 50° C., and then cooled to 25° C. For a supernatant liquid of the fraction obtained after centrifugation, a residual rate of the native type β2m in the supernatant liquid was measured by measuring an absorbance at 280 nm using a spectrophotometer.
For a buffer containing 10 µM of native type β2m (50 mM Tris-HCl, pH 7.5; 300 mM NaCl), 1 mM of the following thiol compound was added, and the obtained mixture was heated from 25° C. to 50° C., equilibrated for 10 minutes when the temperature reached 50° C., and then cooled to 25° C.
For a supernatant liquid of the fraction obtained after centrifugation, a residual rate of the native type β2m in the supernatant liquid was measured by measuring an absorbance at 280 nm using a spectrophotometer.

| reaction rate constant of the disulfide bond introduction reaction (pseudo-first-order reaction) [1] | appearance of the solution after cooling (before centrifugation) (native type β2m) | Compound | residual rate of the native type β2m in the supernatant liquid (native type β2m) |
| --- | --- | --- | --- |
| 6.96×10^−4 | – | NCCNCCSSCCNCCN [LDA-SS] | – |
| – | transparent | NCCNCCS [LDA-SH, 2-((2-aminoethyl)amino)ethane-1-thiol] | higher than that in the case of no additive and in the case of GSH |

The remaining lines, values behind:

| Compound | reaction rate constant of the disulfide bond introduction reaction (pseudo-first-order reaction) [1] | appearance of the solution after cooling (before centrifugation) (native type β2m) | residual rate of the native type β2m in the supernatant liquid (native type β2m) |
| --- | --- | --- | --- |
| NCC(S)CN [BDA-SH, 1,3-diaminopropane-2-thiol] | – | transparent | higher than that in the case of no additive and in the case of GSH |
| NCC(CN)SSC(CN)CN [BDA-SS] | 3.59×10^−2 | – | – |
| oxidized glutathione [GSSG, reference compound] | 1.12×10^−4 | – | – |
